Common to all, as to assay type: in vivo
Test [1] has as its system oxotremorine-induced tremor. Kind of test: Oxotremorine-induced tremor, rating scale. The method, then:
A typical animal model for drug-induced tremors is the oxotremorine-induced tremor (e.g. H. Hallberg and O. Almgren, Acta Physiol. Scand., 1987; 129: 407-13; J.G. Clement and W.R. Dyck, J. Pharmacol. Meth., 1989; 22: 25-36). Oxotremorine induces tremor which is measured by a rating scale. Trans-4-[4-(3-chloro-4-methoxybenzylamino)-benzothieno-[2,3-d]pyrimidin-2-yl]cyclohexanecarboxylic acid or a physiologically acceptable salt thereof inhibit oxotremorine-induced tremors.

The test system of a further test is posthypoxic myoclonus. Kind of test: Posthypoxic myoclonus after cardiac arrest. Conditions: rats resuscitated after cardiac arrest for 8 minutes. The method, then:
A typical animal model for myoclonus is myoclonus induced by an acute hypoxic episode according to D.D. Truong et al., Mov. Dsiord., 1994; 9: 201-206). In this model of posthypoxic myoclonus, rats undergo a cardiac arrest for 8 minutes and are resuscitated thereafter. Myoclonic jerks occur spontaneously but can be provoked by auditory stimulation, too, worsening over the days following cardiac arrest.

Test [2] has as its system patients with Huntington's disease. Kind of test: Placebo-controlled add-on trial in Huntington's disease. As to conditions: AIMS, UHDRS, video recordings; add-on 2.5 to 20 mg b.i.d. versus placebo. The method, then:
A typical trial to establish the effect of the compounds according to the invention on chorea, voluntary motor performance, and functional disability in patients with Huntington's disease encompasses 32 genetically diagnosed patients. Trans-4-[4-(3-chloro-4-methoxybenzylamino)-benzothieno-[2,3-d]pyrimidin-2-yl]cyclohexanecarboxylic acid sodium or ethanolamine salt or placebo is administered as "add on" to the conventional treatment, which is maintained unchanged during the whole study. The dose of blinded medication is titrated over a period of 3 weeks in a range from 2.5 to 20 mg b.i.d. Then the medication is held constant for 1 week. Assessments are performed in the week before and at the last day of the trial. Chorea is scored using the abnormal involuntary movement scale (AIMS, W. Guy, in: ECDEU assessment manual. Rockville MD: US dept. of health, education and welfare, 1976: 534-537), the unified Huntington's disease rating scale (UHDRS, Huntington study group, 1996, Movement Disord, 11: 136-42), and judgement of video recordings. Voluntary motor performance is assessed using the UHDRS motor scale. Patients and their partners complete a questionnaire regarding functional disability.

The test system of test [3] is neuroleptics sensitized monkey. Kind of test: Neuroleptics sensitized monkey, haloperidol challenge. Conditions: given after haloperidol challenge; scoring system. An excerpt:
Another typical animal model is the neuroleptics sensitized monkey according to D.E. Casey, Psychopharmacology, 1996; 124: 134-140. Monkeys treated repeatedly with conventional neuroleptics are highly sensitive to a subsequent challenge dose of neuroleptic drugs. When challenged, the monkeys immediately show extrapyramidal motor side effects such as dystonia, dyskinesias, akathisia, and bradykinesia which are rated by a scoring system. The conventional neuroleptic drug haloperidol is given as a challenge.

Test [4] deals with reserpinized rat or mouse. Kind of test: Reserpine-induced akinesia in activity meters. Conditions: 24 h after reserpine. The method, then:
A typical animal model is the reserpinized rat or mouse (e.g. M.S. Starr and B.S. Starr, J. Neural Transm. - Park. Dis. Dement. Sect., 1994; 7: 133-142; M. Gossel et al., J. Neural Transm. - Park. Dis. Dement. Sect., 1995; 10: 27-39; N.R. Hughes et al., Mov. Disord., 1998; 13: 228-233). Reserpine is a potent depleter of monoamines and produces nearly complete akinesia in both species. Prominent 24 h after application, the distance travelled and the time active is nearly zero as measured in conventional activity meters.

The next test concerns Weaver mutant mouse. Kind of test: Weaver mutant mouse, locomotor activity in activity cages. The source says: Typical genetic models in mutant animals are the Campus Syndrome in the Pietrain pig according to A. Richter et al. (Exp. Neurology, 1995; 134: 205-213) or the Weaver mutant mouse according to J.R. Simon and B. Ghetti (Mol. Neurobiol., 1994; 9: 183-189). In the Campus Syndrome model, these mutant pigs show a high-frequency tremor when standing and during locomotion, but not while lying at rest. Assessment of tremor is made by accelerometric recording. In the Weaver mutant mouse, degenerative cerebellar atrophy is fould in association with tremor, gait instability, and toppling over the sides after a few steps.
Trans-4-[4-(3-chloro-4-methoxybenzylamino)-benzothieno-[2,3-d]pyrimidin-2-yl]cyclohexanecarboxylic acid or a physiologically acceptable salt thereof improve the Campus Syndrome in the Pietrain pig, i.e. reduce disabling tremor when standing and during locomotion, and enhance locomotor activity in the Weaver mutant mouse.

This note sets out measurements from EP1543832A2, “Use of trans-4[4-(3-chloro-4-methoxy-benzylamino) benzothieno[2,3-d]pyrimidin-2-yl]-cyclohexanecarboxylic acid in the treatment of extrapyramidal movement disorders” (MERCK PATENT GmbH, priority 2003, dated 2005).

Regarding `COc1ccc(CNc2nc([C@H]3CC[C@H](C(=O)O)CC3)nc3sc4ccccc4c23)cc1Cl` [trans-4-[4-(3-chloro-4-methoxybenzylamino)-benzothieno-[2,3-d]pyrimidin-2-yl]cyclohexanecarboxylic acid], the oxotremorine-induced tremors entry in test [1] is “inhibit”. Also, the “number of spontaneous and autitory-evoked myoclonic jerks” value in the test on posthypoxic myoclonus is recorded as “dose-dependently reduce”. Besides, in test [2], the “voluntary and involuntary motor performance” value is reported as “significant improvement”. Besides, in test [3], the “extrapyramidal motor side effects” value is listed as “dose-dependently reduce”. In test [4], the akinesia result is listed as “dose-dependently reduced”. Besides, the “distance travelled and time active” value in test [4] (conventional activity meters) is “restored distance travelled and time active to about the level of normal animals”. Further, the locomotor activity entry with Weaver mutant mouse is on record as “enhance”.
